No end group written: not given here.
Key:
[1] = Folding state and stability by CD at different pH and temperature; assay type: physicochemical; conditions: pH 2 to 10, 25 °C to 90 °C, 0.05–0.06 mg/ml
Description: The folding state and stability of NvCI was investigated on the natural and recombinant forms by CD. The proteins, either in 0.1% TFA (v/v) or 20mM sodium phosphate (pH 2.0, 6.5 or 8.0) were analyzed at 0.05–0.06 mg/ml, from 25 to 90 °C in a Jasco J-710 spectropolarimeter (Pfugnstadt, Germany) in the 190–320nm range. Additional analyses were made under folding conditions (20mM sodium phosphate, pH 8.0) in the absence and presence of reducing reagent (1 or 20 mM DTT), a redox-pair (1mM Cys + 0.5mM cystine), and either absence or presence of denaturant (8 M urea). Complementary ^1H-NMR experiments were performed in a 500MHz NMR (Bruker Advance) on rNvCI in 20 mM sodium phosphate (pH 2.0 and 6.5), in 90% ^1H2O + 10% D2O, at 298 K. DQF-COSY, NOESY, TOCSY and HSQC spectra were obtained in a TCI cryoprobe of 5mm and used for provisional backbone assignment.

hCPA2 = biological target: T1, hCPA2 (Homo sapiens, UniProt P48052); test: Ki determination, tight-binding inhibition of metallocarboxypeptidase; assay type: biochemical; conditions: tight-binding equation fit, equilibrium conditions; substrate AAFP 0.1mM, 20mM Tris-HCl pH 7.5, 500mM NaCl; preincubation 15 min; 37 °C; means (n = 3) ± SD
T1 sequence (P48052 115-419): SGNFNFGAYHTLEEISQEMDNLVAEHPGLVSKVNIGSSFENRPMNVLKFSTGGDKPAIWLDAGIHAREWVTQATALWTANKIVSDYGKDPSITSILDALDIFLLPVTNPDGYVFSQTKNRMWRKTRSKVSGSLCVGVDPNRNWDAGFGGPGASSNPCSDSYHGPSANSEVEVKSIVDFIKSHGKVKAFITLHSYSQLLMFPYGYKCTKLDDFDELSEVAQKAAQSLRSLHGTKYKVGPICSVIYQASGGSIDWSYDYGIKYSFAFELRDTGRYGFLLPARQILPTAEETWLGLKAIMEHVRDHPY
Description: (§1) Inhibitory activities against CPA- and CPB-type forms (bovine and human variants of CPA1, CPA2, CPA4, CPB1, and TAFI) were assayed for all extracts, subject to the experimental conditions that enzyme (E), substrate (S) and inhibitor (I) concentrations as well as the [I]/[E] ratio and preincubation time followed the requirements for tight-binding inhibitor assays. Similar approaches were followed to measure the activities of proteases of different catalytic types, like pepsin, papain, trypsin and subtilisin [45, 46, 47, 48]. All assays were performed in triplicate at 25 °C in a multiplexed manner. For 96-well assays an iEMS spectrophotometer reader/dispenser FM (Labsystems, Finland) was used with a final reaction volume of 250 μL. For cuvette assays, a Cary 400 Bio spectrophotometer (Varian Inc., Palo Alto, CA, USA) spectrophotometer was used with a final reaction volume of 1 ml. The reactions were followed at 5 s intervals for 5 min and recorded as initial velocities. In the protease inhibition assays, mixtures of activity buffer, biological sample and enzyme were preincubated at 25 °C for 10min, before substrate addition. The assay conditions were as follows: for CPA-like enzymes, 7.0nM CPA, 0.1mM AAFP substrate in 20mM Tris-HCl pH 7.5, 500mMNaCl, 1% v/v dimethyl sulfoxide (DMSO), 0.05% w/v BRIJ-35 was used. For CPB-like enzymes, CPB 3.0nM CPB, 0.1mM AAFA substrate and activity buffer of 20 mM Tris-HCl pH [50].
(§2) The Ki values of natural and recombinant NvCI against bCPA1, hCPA1, hCPA2, rat CPA3, hCPA4, hCPB1, bTAFI, hTAFI, hCPD and hCPZ were determined by measuring the enzymatic residual activity (Vi/V0 = a) at different inhibitor concentrations and using a fixed enzyme and substrate concentrations as described above, where vi and v0 are the fraction of enzymatic activity in the presence and absence of inhibitor, respectively, in terms of initial velocities. The determination of Ki values was carried out on equilibrium conditions ([E0]/Ki ≤ 10), using a previously determined preincubation time of 15 min, required to establish enzyme-inhibitor equilibrium. Working temperature was 37 °C. The best estimates of Ki values were obtained by fitting the experimental data to the equation for tight-binding inhibitors by non-linear regression using the GraphPad Prisma 5 software (GraphPad Software, Inc., San Diego, CA, USA) at p < 0.05. The real Ki values against each of these A/B-type MCPs were calculated according to the equation described by Morrison and Copeland [19, 20].

CPA1 forms = test: Apparent binding kinetics, effect of preincubation time; assay type: biochemical; conditions: preincubation over different periods of time, titration and equilibrium conditions
Description: as §2, with “The determination of Ki values was carried out on equilibrium conditions ([E0]/Ki ≤ 10), using a previously determined preincubation time of 15 min, required to establish enzyme-inhibitor equilibrium.” left out

different MCPs = test: as above; assay type: biochemical; conditions: preincubation over different periods of time, titration and equilibrium conditions
Description: as §2, with “The determination of Ki values was carried out on equilibrium conditions ([E0]/Ki ≤ 10), using a previously determined preincubation time of 15 min, required to establish enzyme-inhibitor equilibrium.” left out

[2] = system: serine, cysteine and aspartic proteases; test: Inhibition of proteases of other catalytic types; assay type: biochemical; conditions: even at tenfold excess; pepsin, papain, trypsin and subtilisin assays, 25 °C, triplicate
Description: as §1, with “For CPB-like enzymes, CPB 3.0nM CPB, 0.1mM AAFA substrate and activity buffer of 20 mM Tris-HCl pH [50].” left out

NvCI: 53-residue, three-disulphide proteinaceous metallocarboxypeptidase inhibitor from the marine snail Nerita versicolor; major isoform; UniProt P86912 (FHVPDDRPCINPGRCPLVPDATCTFVCKAADNDFGYECQHVWTFEGQRVGCYA; disulfide (positions not given here); also: three disulphides, pairing not given here; UniProt P86912 1-53, looked up)
stability by CD spectra [1]: great stability and capacity to recover its spectral properties when returned to room conditions
Ki (hCPA2): 6.51 ± 0.0686 nM
binding behaviour (CPA1 forms): slow binding behavior
binding behaviour (different MCPs): fast binding
inhibition of serine, cysteine and aspartic proteases [2]: unable to inhibit

Reference: article PMC6780499, “Characterization, Recombinant Production and Structure-Function Analysis of NvCI, A Picomolar Metallocarboxypeptidase Inhibitor from the Marine Snail Nerita versicolor” (Marine Drugs, 2019)
